Data from patent US20240132485A1, “HETEROCYCLIC CULLIN RING UBIQUITIN LIGASE COMPOUNDS AND USES THEREOF” (CEMM - FORSCHUNGSZENTRUM FÜR MOLEKULARE MEDIZIN GMBH, priority 2020, published 2024).

Columns and labels:
KBM7_WT cells = assay: Cell viability assay (CellTiter Glo), KBM7 wild-type, 3-day treatment; type: cell-based; conditions: Homo sapiens, KBM-7, 72 h, read-out: LC50 KBM7_WT
Procedure: (§1) KBM7^WT, UBE2M and CUL4B mutant KBM7 clones (UBE2M^mut and CUL4B^mut) were seeded at a cell density of 50,000 cells/mL in 96-well with DMSO or degraders Z1 to Z3, Z5 to Z7, Z9 to Z11, Z13 and Z14 in triplicates. Cells were treated for 3 days, after which a cell viability assay was performed (CellTiter Glo, Promega), according to manufacturer's protocol. Survival curves and IC50 values (LC50 values) were calculated by best-fit analysis of the log 10 drug concentration to fold change of drug-treated cells over DMSO-treated cells. All survival assays included technical triplicates per sample, per experiment.
(§2) Compounds, Z1 to Z3, Z5 to Z7, Z9 to Z11, Z13 and Z14, were tested for their antiproliferative effects in human leukemia cells (KBM7). These cells were either transduced with a control sgRNA (KBM7_WT), or with an sgRNA targeting UBE2M or CUL4B, leading to a hypomorph (deletion of six amino acids) with a functional impairment (UBE2M_MUT).
(§3) Indeed, 11 compounds Z1 to Z3, Z5 to Z7, Z9 to Z11, Z13 and Z14 were identified to fulfill these criteria and to stand out in terms of fold-change significance; see, e.g., FIG. 1 and Table 1. The dose ranging differential effect of these hits was assessed/validated, comparing their activity in KBM7_WT (KBM7^WT) vs UBE2_MUT and CUL4B_MUT cells (UBE2M^mut and CUL4B^mut).

UBE2M_MUT KBM7 cells = assay: Cell viability assay (CellTiter Glo), UBE2M mutant KBM7 clone, 3-day treatment; type: cell-based; conditions: Homo sapiens, KBM-7, 72 h, UBE2M mutant KBM7, 3-day treatment, read-out: LC50 UBE2M_MUT
Procedure: as §1, §2, §3

CUL4B_MUT KBM7 cells = assay: Cell viability assay (CellTiter Glo), CUL4B mutant KBM7 clone, 3-day treatment; type: cell-based; conditions: Homo sapiens, KBM-7, 72 h, CUL4B mutant KBM7, 3-day treatment, read-out: LC50 CUL4B_MUT
Procedure: as §1, §2, §3

Cyclin K = conditions: cited from earlier work
CCNK = assay: NanoLuc-CCNK degradation assay (HEK293T_Nluc_CCNK-tagged cells); type: cell-based; conditions: for DC50 / NanoLuc-CCNK degradation DC50 Activity Class: 4 h incubation, HEK293T_Nluc_CCNK-tagged cells; for DC50: read-out: NanoLuc-CCNK degradation DC50 Activity Class
How it was run: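 HEK293T cells with nanoluciferase knocked in at the N-terminus of endogenous CCNK (CRISPR) exposed to a 10-point titration (0 to 10 μM, 1:4) in Opti-MEM I + 4% FBS for 4 h. Nano-Glo substrate then added and luminescence read as a measure of Cyclin K abundance.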

KBM7 cells (wild-type) = assay: KBM7 CTG EC50 assay (UBE2M wild-type); type: cell-based, human; conditions: for EC50: Homo sapiens, KBM-7, 72 h incubation, CellTiter-Glo, read-out: KBM7 CTG EC50 (UBE2M wild-type) Activity Class; for Ratio UBE2M WT to KO: ratio of anti-proliferative activity in KBM7 wild-type versus UBE2M knock-out cells (fold)
How it was run: (§4)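 Wild-type KBM7 cells, or KBM7 cells with a hypomorphic UBE2M mutation that impairs Cullin-RING ligase activity, were treated for 72 h with compounds in a 10-point, 1:4 titration (0 to 20 μM). Viability was read by CellTiter-Glo 2.0 luminescence.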

[1] = molecular target: T1, DDB1-CDK12/Cyclin K ternary complex (Homo sapiens, UniProt Q16531+Q9NYV4); assay: NanoBRET EC50 assay (HaloTag_CDK12 / NanoLuc_DDB1 in HEK293T); type: cell-based; conditions: for NanoBRET EC50 Activity Class / EC50: 10-point titration from 20 μM, HEK293T; for EC50: read-out: NanoBRET EC50 Activity Class
T1 construct: expressed in transfected cells; host or cells: HEK293T wildtype cells, transient PEI transfection
Procedure: This assay measures the interaction/recruitment of CDK12/Cyclin K to DDB1, mechanistically validating the molecular glue pharmacology.
HEK293T wildtype cells are seeded 800 k cells/well (DMEM+10% FBS+1% PS) in a 6-well plate and allowed to attach for ˜7 hours followed by a transient transfection of 1.5 μg HaloTag_CDK12 Plasmid [Table 1] and 0.15 μg NanoLuc_DDB1 plasmid [Table 1] per well using PEI. Cells are incubated at 37° C., 5% CO2, harvested after 24 hours and resuspended in assay media (Opti-MEM Reduced serum media, no phenol red, 4% FBS, 1% PS). Cells are adjusted to 2.3×10^5 cells/ml and treated with HaloTag 618 Ligand at 100 nM or DMSO. 8000 cells are seeded per well in triplicates per compound in a white-walled 384-well plate, one negative control treated with DMSO instead of HaloTag 618 Ligand is seeded in triplicates and the 384-well plate is incubated at 37° C., 5% CO2 overnight. Compound stock solutions are prepared in Opti-MEM−/− (Opti-MEM I Reduced serum media, no phenol red) at 8× and used to treat the cells at a final concentration of 1× at 10 μM. Cells and compounds are incubated for 10 minutes at room temperature followed by addition of NanoBRET Nano-Glo substrate following manufacturer's protocols. The plate is shaken for 30 sec followed by immediate measurement of donor emission (NanoBRET Blue at 460 nm) and acceptor emission (BRET Deep Red at 647 nm) for 0.5 s.
The assay setup is identical to “NanoBRET fold change experimental setup”. Instead of treating cells in […] with 10 μM compound, a 10-point titration starting at 20 μM is performed with a dilution factor of 1:4, covering α range of 20000 nM-0.076 nM.

[2] = molecular target: T1, DDB1-CDK12/Cyclin K ternary complex; assay: NanoBRET fold-change assay (HaloTag_CDK12 / NanoLuc_DDB1 in HEK293T); type: cell-based; conditions: 10 μM compound, 10 minutes
How it was run: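 HEK293T cells transiently co-transfected with HaloTag_CDK12 and NanoLuc_DDB1, labelled overnight with 100 nM HaloTag 618 ligand (DMSO no-ligand control), then treated with compound at 10 μM final for 10 min at room temperature. BRET read as 460 nm donor and 647 nm acceptor emission after Nano-Glo substrate; reported as fold change.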

[3] = test system: KBM7 cells harboring a hypomorphic UBE2M mutation; assay: KBM7 CTG EC50 assay (UBE2M knock-out); type: cell-based; conditions: Homo sapiens, KBM-7; 72 h incubation, CellTiter-Glo; read-out: KBM7 CTG EC50 (UBE2M knock-out) Activity Class
How it was run: as §4

T1 sequence (Q9NYV4 whole entry): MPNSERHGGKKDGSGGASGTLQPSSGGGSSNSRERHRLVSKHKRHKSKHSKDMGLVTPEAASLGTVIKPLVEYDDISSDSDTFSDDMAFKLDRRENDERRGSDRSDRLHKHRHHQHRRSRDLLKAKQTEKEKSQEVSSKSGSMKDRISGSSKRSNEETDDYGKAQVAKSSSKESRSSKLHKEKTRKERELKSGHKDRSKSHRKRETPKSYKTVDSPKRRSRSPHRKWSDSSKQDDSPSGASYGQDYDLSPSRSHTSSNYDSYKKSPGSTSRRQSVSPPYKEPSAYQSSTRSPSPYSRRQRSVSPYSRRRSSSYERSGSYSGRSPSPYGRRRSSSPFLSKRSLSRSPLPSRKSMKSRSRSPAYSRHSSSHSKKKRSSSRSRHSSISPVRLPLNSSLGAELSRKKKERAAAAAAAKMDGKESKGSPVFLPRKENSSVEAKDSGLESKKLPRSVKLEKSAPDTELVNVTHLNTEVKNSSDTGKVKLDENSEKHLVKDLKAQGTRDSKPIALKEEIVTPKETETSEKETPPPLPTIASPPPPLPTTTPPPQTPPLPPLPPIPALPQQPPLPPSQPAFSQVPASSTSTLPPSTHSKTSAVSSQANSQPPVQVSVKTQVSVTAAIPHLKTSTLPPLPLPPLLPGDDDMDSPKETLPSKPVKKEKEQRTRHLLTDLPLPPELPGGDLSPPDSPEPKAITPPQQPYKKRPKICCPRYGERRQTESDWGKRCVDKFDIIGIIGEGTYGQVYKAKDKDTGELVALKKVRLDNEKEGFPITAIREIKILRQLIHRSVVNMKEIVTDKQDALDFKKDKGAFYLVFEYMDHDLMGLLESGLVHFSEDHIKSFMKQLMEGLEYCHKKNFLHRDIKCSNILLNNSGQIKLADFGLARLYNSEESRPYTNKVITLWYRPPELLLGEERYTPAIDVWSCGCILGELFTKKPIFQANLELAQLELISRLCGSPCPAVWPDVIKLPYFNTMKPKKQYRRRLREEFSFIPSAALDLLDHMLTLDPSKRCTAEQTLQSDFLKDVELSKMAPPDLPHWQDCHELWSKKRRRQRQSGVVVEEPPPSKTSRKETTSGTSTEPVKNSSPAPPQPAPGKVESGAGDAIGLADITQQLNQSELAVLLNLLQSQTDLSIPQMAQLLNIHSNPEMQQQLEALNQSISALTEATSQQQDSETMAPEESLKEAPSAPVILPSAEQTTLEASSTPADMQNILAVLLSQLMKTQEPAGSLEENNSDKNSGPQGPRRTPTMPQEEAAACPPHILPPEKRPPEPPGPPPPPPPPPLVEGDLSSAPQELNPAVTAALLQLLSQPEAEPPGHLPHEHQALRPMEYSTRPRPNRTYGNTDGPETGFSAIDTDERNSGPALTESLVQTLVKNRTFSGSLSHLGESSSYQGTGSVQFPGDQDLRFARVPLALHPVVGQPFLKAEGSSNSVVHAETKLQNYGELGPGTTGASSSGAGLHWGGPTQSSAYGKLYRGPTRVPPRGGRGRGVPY
T1 sequence (Q16531 whole entry): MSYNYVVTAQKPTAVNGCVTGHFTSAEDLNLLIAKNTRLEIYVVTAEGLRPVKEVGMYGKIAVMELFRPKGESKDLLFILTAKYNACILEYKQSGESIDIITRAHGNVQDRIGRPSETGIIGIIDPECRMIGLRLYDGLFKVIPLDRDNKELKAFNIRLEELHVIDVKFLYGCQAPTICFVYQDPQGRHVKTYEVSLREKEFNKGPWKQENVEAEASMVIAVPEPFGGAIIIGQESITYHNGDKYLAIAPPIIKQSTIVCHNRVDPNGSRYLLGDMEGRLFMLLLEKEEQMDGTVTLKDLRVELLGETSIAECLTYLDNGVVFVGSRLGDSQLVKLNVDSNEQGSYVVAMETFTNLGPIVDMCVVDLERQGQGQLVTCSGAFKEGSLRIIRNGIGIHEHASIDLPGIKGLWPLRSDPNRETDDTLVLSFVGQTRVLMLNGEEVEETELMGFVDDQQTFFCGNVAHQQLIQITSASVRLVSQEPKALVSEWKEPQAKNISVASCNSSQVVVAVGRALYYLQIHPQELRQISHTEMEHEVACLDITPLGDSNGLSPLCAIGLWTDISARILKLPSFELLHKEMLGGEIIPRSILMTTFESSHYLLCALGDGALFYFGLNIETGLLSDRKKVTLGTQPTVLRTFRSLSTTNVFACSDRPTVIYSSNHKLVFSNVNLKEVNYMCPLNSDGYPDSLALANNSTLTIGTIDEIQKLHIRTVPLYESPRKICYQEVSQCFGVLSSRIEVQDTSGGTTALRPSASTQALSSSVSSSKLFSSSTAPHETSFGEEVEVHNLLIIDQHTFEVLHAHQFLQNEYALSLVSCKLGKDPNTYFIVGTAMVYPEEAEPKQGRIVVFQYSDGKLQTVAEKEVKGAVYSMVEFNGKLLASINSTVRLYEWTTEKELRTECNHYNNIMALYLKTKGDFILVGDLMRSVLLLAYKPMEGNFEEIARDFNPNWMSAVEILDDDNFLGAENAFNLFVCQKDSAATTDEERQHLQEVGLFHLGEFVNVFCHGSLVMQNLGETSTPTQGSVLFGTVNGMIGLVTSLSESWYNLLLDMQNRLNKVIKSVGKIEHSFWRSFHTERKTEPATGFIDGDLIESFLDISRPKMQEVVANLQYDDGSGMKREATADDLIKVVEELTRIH
T1 sequence (O75909 whole entry partner): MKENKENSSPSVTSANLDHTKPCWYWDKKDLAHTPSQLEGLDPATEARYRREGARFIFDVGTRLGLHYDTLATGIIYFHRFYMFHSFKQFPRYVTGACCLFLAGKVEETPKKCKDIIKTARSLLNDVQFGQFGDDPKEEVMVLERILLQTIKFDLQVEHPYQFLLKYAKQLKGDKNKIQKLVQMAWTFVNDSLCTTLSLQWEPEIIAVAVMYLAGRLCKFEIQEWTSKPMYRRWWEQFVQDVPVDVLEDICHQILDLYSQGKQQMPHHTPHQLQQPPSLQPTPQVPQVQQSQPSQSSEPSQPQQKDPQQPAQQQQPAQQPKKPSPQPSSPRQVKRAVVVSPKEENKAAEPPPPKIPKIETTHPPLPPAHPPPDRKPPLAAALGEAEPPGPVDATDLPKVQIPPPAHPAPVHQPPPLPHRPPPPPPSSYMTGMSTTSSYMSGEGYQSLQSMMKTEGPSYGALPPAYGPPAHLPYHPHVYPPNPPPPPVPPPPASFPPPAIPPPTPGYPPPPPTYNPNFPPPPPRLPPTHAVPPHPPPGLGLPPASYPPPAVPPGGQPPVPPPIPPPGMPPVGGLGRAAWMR

Structure (SMILES)	CC50 (KBM7_WT cells) [µM]	CC50 (UBE2M_MUT KBM7 cells) [µM]	CC50 (CUL4B_MUT KBM7 cells) [µM]	DC50 (CCNK) [µM]	EC50 (KBM7 cells (wild-type)) [µM]	Ratio UBE2M WT to KO (KBM7 cells (wild-type))	NanoBRET fold-change Activity Class [2]	EC50 [3] [µM]	EC50 [1] [µM]	other results
Cc1cc(NC(C)C(=O)Nc2ccc(Cl)cn2)ccc1Br (stereo not drawn) [Example Z6]	1.57	6.8	6.06	–	–	–	–	–	–	–
Cc1cnc(NC(=O)C2CC(=O)N(c3cccc(Cl)c3Cl)C2)s1 (stereo not drawn) [Example Z13]	1.29	6.99	5.68	–	–	–	–	–	–	–
CN(C)C/C=C/C(=O)Nc1ccc(C(=O)N2CCC[C@@H](Nc3ncc(Cl)c(-c4c[nH]c5ccccc45)n3)C2)cc1 [THZ-531]	–	–	–	–	–	–	–	–	–	Cyclin K degradation, in words (Cyclin K): did not cause cyclin K degradation
COc1ccc(C)cc1N1CC(C(=O)Nc2nc3ccccc3[nH]2)CC1=O (stereo not drawn) [Example Z11]	0.92	2.75	2	–	–	–	–	–	–	–
O=C(Nc1nc2c(s1)CCCC2)C1CCCN1C(=O)c1ccccc1 (stereo not drawn) [Example Z3]	11.8	> 10	> 10	–	–	–	–	–	–	–
O=C(CCn1cnc2ccccc2c1=O)Nc1ccc(Br)cn1 [Example Z7]	1.81	> 10	> 10	–	–	–	–	–	–	–
Cc1ccc(NC(=O)C2CC(=O)N(c3cccc(Cl)c3)C2)nc1 (stereo not drawn) [Example Z9]	2.35	> 10	> 10	–	–	–	–	–	–	–
Cc1cn2nc(NCCNc3ccc(C#N)cn3)sc2n1 [Example Z5]	3.75	> 10	> 10	–	–	–	–	–	–	–
Cc1ccc2c(CC(=O)Nc3cc(Br)[nH]n3)coc2c1C [Example 3-47, N-(5-bromo-1H-pyrazol-3-yl)-2-(6,7-dimethylbenzofuran-3-yl)acetamide]	–	–	–	≤ 0.1	≤ 0.25	15.7	A (greater than 4-fold increase)	0.5 to 1	–	NanoBRET EC50 Activity Class [1]: B (0.50 μM≤EC50≤0.25 μM)
COc1ccc2cc(C(C)C(=O)Nc3ncc(C)s3)ccc2c1 (stereo not drawn) [Example Z2]	1.35	> 10	> 10	–	–	–	–	–	–	–
O=C1CC(CNc2ncc(Cl)cn2)CN1CCc1ccccc1 (stereo not drawn) [Example Z10]	7.82	> 10	> 10	–	–	–	–	–	–	–
Cc1ccc2c(CC(=O)Nc3ncc(Cl)s3)coc2c1C [Example 3-3, N-(5-chlorothiazol-2-yl)-2-(6,7-dimethylbenzofuran-3-yl)acetamide]	–	–	–	> 10	≤ 0.25	23.5	D (1-2 fold increase)	1 to 10	> 10	–
Cc1ccc2c(CC(=O)Nc3nccs3)coc2c1C [Example Z1]	7.12	> 10	> 10	–	–	–	–	–	–	–
O=C(Cc1cn2cc(Cl)ccc2n1)Nc1cc(C2CC2)[nH]n1 [Example 3-66, N-(5-cyclopropyl-1H-pyrazol-3-yl)-2-(6-chloroimidazo[1,2-a]pyridin-2-yl)acetamide]	–	–	–	≤ 0.1	≤ 0.25	388.0	A (greater than 4-fold increase)	≤ 0.25	≤ 0.25	activity in NanoLuc CCNK degradation assay, in words (CCNK): particularly exceptional; dependence of cytotoxicity on UBE2M, in words (KBM7 cells (wild-type); KBM7 wild-type versus UBE2M mutant): very strong dependence; activity in NanoBRET assay (ternary complex formation), in words [1]: particularly exceptional
O=C(NCCCNc1ccc(C(F)(F)F)cn1)c1ccccc1 [Example Z14]	4.69	> 10	> 10	–	–	–	–	–	–	–
O=C(Cc1ccc2ncccc2c1)Nc1ncc(C(F)(F)F)s1 [Example 3-14, 2-(quinolin-6-yl)-N-(5-(trifluoromethyl)thiazol-2-yl)acetamide]	–	–	–	≤ 0.1	≤ 0.25	–	A (greater than 4-fold increase)	≤ 0.25	≤ 0.25	activity in NanoLuc CCNK degradation assay, in words (CCNK): extremely high activity; activity in KBM7 cytotoxicity assay, in words (KBM7 cells (wild-type); KBM7): extremely potent activity; activity in NanoBRET assay (ternary complex formation), in words [1]: extremely high activity
COc1cc2ncn(CCC(=O)Nc3ncc(C(F)(F)F)s3)c(=O)c2cc1OC [Example 3-64, 3-(6,7-dimethoxy-4-oxoquinazolin-3(4H)-yl)-N-(5-(trifluoromethyl)thiazol-2-yl)propanamide]	–	–	–	≤ 0.1	≤ 0.25	21.9	A (greater than 4-fold increase)	0.5 to 1	> 10	–
Cc1ccc2c(CC(=O)Nc3ncc(C4CC4)s3)coc2c1C [Example 3-42, N-(5-cyclopropylthiazol-2-yl)-2-(6,7-dimethylbenzofuran-3-yl)acetamide]	–	–	–	≤ 0.1	≤ 0.25	8.5	A (greater than 4-fold increase)	≤ 0.25	–	NanoBRET EC50 Activity Class [1]: C (1.0 μM≤EC50<0.50 μM)
O=C(Cc1cn2cc(F)ccc2n1)Nc1cc(C(F)(F)F)[nH]n1 [Example 3-59, 2-(6-fluoroimidazo[1,2-a]pyridin-2-yl)-N-(5-(trifluoromethyl)-1H-pyrazol-3-yl)acetamide]	–	–	–	> 10	0.25 to 0.5	>10	C (2-3 fold increase)	> 10	> 10	–
Cc1ccc2c(CC(=O)Nc3ccc(C4CC4)cn3)coc2c1C [Example 3-52, N-(5-cyclopropylpyridin-2-yl)-2-(6,7-dimethylbenzofuran-3-yl)acetamide]	–	–	–	–	≤ 0.25	27.0	A (greater than 4-fold increase)	1 to 10	≤ 0.25	NanoLuc-CCNK degradation DC50 Activity Class (CCNK): B (0.50 μM≤DC50<0.10 μM)
Cc1ccc2c(CC(=O)Nc3ccc(Br)cn3)coc2c1C [Example 3-53, N-(5-bromopyridin-2-yl)-2-(6,7-dimethylbenzofuran-3-yl)acetamide]	–	–	–	–	≤ 0.25	22.7	B (3-4 fold increase)	1 to 10	> 10	NanoLuc-CCNK degradation DC50 Activity Class (CCNK): B (0.50 μM≤DC50<0.10 μM)
